Measurements: US20220226265A1, “METHODS OF CONTROLLING MYOCARDIAL BLOOD FLOW” (UNIVERSITY OF LOUISVILLE RESEARCH FOUNDATION, INC., priority 2021, published 2022)

Test system: wild type and Kvβ-null mice
Experiment: Echocardiographic cardiac function during intravenous norepinephrine infusion
Assay type: in vivo, mouse
Settings: for ejection fraction: after 1 min of 5 μg/kg·min−1 norepinephrine infusion
Text: In vivo measurements of cardiac function and myocardial blood flow: Mice were anesthetized with 3% isoflurane and supplemental O2, administered (1 L·min^−1) in a small induction chamber. After induction, the mice were placed on a controlled heating table in a supine position. Anesthesia was maintained throughout the procedure by delivery of 1-2% isoflurane and supplemental O2 (0.5 L·min^−1). The extremities were secured to the surgical table by tape and a lubricated probe was inserted rectally to monitor body temperature. The chest, neck, and hind limb hair were then removed using a depilatory agent, the skin was rinsed with warm water, and the neck area was disinfected with 70% ethanol/betadine and an incision (10-15 mm) was made at the right side of the neck. For infusion of contrast agent and drugs, the jugular vein was isolated using blunt forceps and catheterized with sterilized PE-50 polyethylene tubing (pre-filled with heparinized saline; 50 U·ml^−1). The jugular vein catheter was then secured in place with two sutures. For continuous measurement of arterial blood pressure, a small incision was made on the hind limb and the femoral artery was isolated and cannulated with a 1.2 F pressure catheter (SciSense, Transonic Systems, Inc., Ithaca, N.Y., USA) connected to a PowerLab data acquisition system (ADInstruments, Colorado Springs, Colo., USA) through a SP200 pressure interface unit designed to measure arterial blood pressure and heart rate. After cannulation, the pressure catheter was advanced 10 mm into the abdominal aorta.
Ultrasound gel was centrifuged in a 60 mL syringe (1500×g, 10 min) to remove air bubbles, warmed to 37° C., and applied to the chest. Cardiac function was measured by M-mode transthoracic echocardiographic imaging of the parasternal short axis view, mid-papillary level using a Vevo 2100 high resolution echocardiography imaging system (FujiFilm VisualSonics, Toronto, ON, Canada). Contrast echocardiography was performed by using Siemens ultrasound imaging system (Sequoia Acuson C512; Siemens Medical Systems USA Inc., Mountain View, Calif.) with a high-frequency linear-array probe (15L8) held in place by a 3D railing system. For myocardial contrast echocardiography (MCE), we administered lipid-shelled microbubbles, which were freshly prepared by sonication of a decafluorobutane gas-saturated aqueous suspension of distearoylphosphatidylcholine (2 mg/mL) and polyoxyethylene-40-stearate (1 mg/mL). The contrast agent was intravenously infused via the jugular vein catheter at a rate of ˜5×10^5 microbubbles·min-1 (20 μl·min^−1) and MCE was performed by administering a multi-pulse contrast-specific pulse sequence to detect non-linear microbubble contrast signal at low mechanical index (MI=0.18-0.25). Data were acquired during and after a 1.9 MI pulse sequence to destruct microbubbles within the acoustic field, followed by imaging of replenished contrast signal.
Measurements of cardiac function, myocardial perfusion, and arterial blood pressure were performed at baseline, after administration of hexamethonium (5 mg·kg^−1, i.v.), and following successive doses of norepinephrine (0.5, 1.0, 2.5, and 5.0 μg·kg^−1·min^−1; 3 min duration each dose, followed by 3-5 min washout). […] All data analyses and calculations of cardiac workload (double product of mean arterial pressure and heart rate), cardiac function, myocardial blood flow, and mean arterial pressure were performed offline. For pressure measurements, we used Lab Chart 8 software (ADInstruments, Colorado Springs, Colo., USA). Left ventricular volume at end diastole (LVEDV) and end systole (LVESV), as well left ventricular internal diameter at end diastole (LVID,d) and end systole (LVID,s) were measured at steady state after drug infusions. […]

[1] = NE 0.5 μg/kg·min−1 i.v., Kvβ1.1−/− mice
[2] = NE 0.5 μg/kg·min−1 i.v., Kvβ2−/− mice
[3] = NE 0.5 μg/kg·min−1 i.v., SM22α-rtTA mice
[4] = NE 0.5 μg/kg·min−1 i.v., SM22α-rtTA:TRE-Kvβ1 mice
[5] = NE 0.5 μg/kg·min−1 i.v., Wild type (129SvEv) mice
[6] = NE 0.5 μg/kg·min−1 i.v., Wild type (C57B16N) mice
[7] = NE 1 μg/kg·min−1 i.v., Kvβ1.1−/− mice
[8] = NE 1 μg/kg·min−1 i.v., Kvβ2−/− mice
[9] = NE 1 μg/kg·min−1 i.v., SM22α-rtTA mice
[10] = NE 1 μg/kg·min−1 i.v., SM22α-rtTA:TRE-Kvβ1 mice
[11] = NE 1 μg/kg·min−1 i.v., Wild type (129SvEv) mice
[12] = NE 1 μg/kg·min−1 i.v., Wild type (C57B16N) mice
[13] = NE 2.5 μg/kg·min−1 i.v., Kvβ1.1−/− mice
[14] = NE 2.5 μg/kg·min−1 i.v., Kvβ2−/− mice
[15] = NE 2.5 μg/kg·min−1 i.v., SM22α-rtTA mice
[16] = NE 2.5 μg/kg·min−1 i.v., SM22α-rtTA:TRE-Kvβ1 mice
[17] = NE 2.5 μg/kg·min−1 i.v., Wild type (129SvEv) mice
[18] = NE 2.5 μg/kg·min−1 i.v., Wild type (C57B16N) mice
[19] = NE 5.0 μg/kg·min−1 i.v., Kvβ1.1−/− mice
[20] = NE 5.0 μg/kg·min−1 i.v., Kvβ2−/− mice
[21] = NE 5.0 μg/kg·min−1 i.v., SM22α-rtTA mice
[22] = NE 5.0 μg/kg·min−1 i.v., SM22α-rtTA:TRE-Kvβ1 mice
[23] = NE 5.0 μg/kg·min−1 i.v., Wild type (129SvEv) mice
[24] = NE 5.0 μg/kg·min−1 i.v., Wild type (C57B16N) mice

SMILES: NC[C@H](O)c1ccc(O)c(O)c1 [norepinephrine]
- EDV (left ventricular end diastolic volume) [1]: 53.5 ± 4.9 µL
- EF (ejection fraction) [1]: 61.4 ± 4.2%
- ESV (left ventricular end systolic volume) [1]: 21.3 ± 3.9 µL
- FS (fractional shortening) [1]: 32.5 ± 2.8%
- SV (stroke volume) [1]: 32.2 ± 1.8 µL
- EDV (left ventricular end diastolic volume) [2]: 48.3 ± 2.7 µL
- EF (ejection fraction) [2]: 71.9 ± 3.3%
- ESV (left ventricular end systolic volume) [2]: 13.6 ± 1.6 µL
- FS (fractional shortening) [2]: 40.7 ± 2.8%
- SV (stroke volume) [2]: 34.7 ± 2.4 µL
- EDV (left ventricular end diastolic volume) [3]: 43.6 ± 2.9 µL
- EF (ejection fraction) [3]: 82.3 ± 3.3%
- ESV (left ventricular end systolic volume) [3]: 8.1 ± 2.0 µL
- FS (fractional shortening) [3]: 50.9 ± 3.6%
- SV (stroke volume) [3]: 35.4 ± 1.6 µL
- EDV (left ventricular end diastolic volume) [4]: 45.9 ± 3.8 µL
- EF (ejection fraction) [4]: 62.7 ± 6.0%
- ESV (left ventricular end systolic volume) [4]: 17.7 ± 3.6 µL
- FS (fractional shortening) [4]: 33.9 ± 4.1%
- SV (stroke volume) [4]: 28.2 ± 2.7 µL
- EDV (left ventricular end diastolic volume) [5]: 50.5 ± 7.8 µL
- EF (ejection fraction) [5]: 63.5 ± 2.5%
- ESV (left ventricular end systolic volume) [5]: 19.4 ± 3.7 µL
- FS (fractional shortening) [5]: 34.2 ± 1.9%
- SV (stroke volume) [5]: 31.2 ± 4.2 µL
- EDV (left ventricular end diastolic volume) [6]: 57.8 ± 2.3 µL
- EF (ejection fraction) [6]: 71.64 ± 2.2%
- ESV (left ventricular end systolic volume) [6]: 16.37 ± 1.4 µL
- FS (fractional shortening) [6]: 40.48 ± 2.0%
- SV (stroke volume) [6]: 41.46 ± 2.3 µL
- EDV (left ventricular end diastolic volume) [7]: 47.6 ± 8.1 µL
- EF (ejection fraction) [7]: 70.9 ± 3.1%
- ESV (left ventricular end systolic volume) [7]: 14.1 ± 3.4 µL
- FS (fractional shortening) [7]: 40.1 ± 2.4%
- SV (stroke volume) [7]: 33.5 ± 5.2 µL
- EDV (left ventricular end diastolic volume) [8]: 48.7 ± 4.6 µL
- EF (ejection fraction) [8]: 73.1 ± 1.8%
- ESV (left ventricular end systolic volume) [8]: 13.3 ± 1.8 µL
- FS (fractional shortening) [8]: 41.4 ± 1.6%
- SV (stroke volume) [8]: 42.7 ± 8.2 µL
- EDV (left ventricular end diastolic volume) [9]: 49.4 ± 2.9 µL
- EF (ejection fraction) [9]: 80.6 ± 4.2%
- ESV (left ventricular end systolic volume) [9]: 10.0 ± 2.6 µL
- FS (fractional shortening) [9]: 49.6 ± 4.3%
- SV (stroke volume) [9]: 39.4 ± 1.8 µL
- EDV (left ventricular end diastolic volume) [10]: 46.9 ± 4.9 µL
- EF (ejection fraction) [10]: 74.2 ± 3.9%
- ESV (left ventricular end systolic volume) [10]: 12.7 ± 3.2 µL
- FS (fractional shortening) [10]: 42.7 ± 3.3%
- SV (stroke volume) [10]: 34.2 ± 2.0 µL
- EDV (left ventricular end diastolic volume) [11]: 46.7 ± 7.4 µL
- EF (ejection fraction) [11]: 70.7 ± 5.3%
- ESV (left ventricular end systolic volume) [11]: 14.7 ± 4.3 µL
- FS (fractional shortening) [11]: 40.1 ± 4.6%
- SV (stroke volume) [11]: 32.0 ± 3.7 µL
- EDV (left ventricular end diastolic volume) [12]: 61.6 ± 3.2 µL
- EF (ejection fraction) [12]: 72.40 ± 1.2%
- ESV (left ventricular end systolic volume) [12]: 17.12 ± 1.3 µL
- FS (fractional shortening) [12]: 40.97 ± 1.0%
- SV (stroke volume) [12]: 44.52 ± 2.3 µL
- EDV (left ventricular end diastolic volume) [13]: 41.5 ± 8.8 µL
- EF (ejection fraction) [13]: 78.2 ± 2.0%
- ESV (left ventricular end systolic volume) [13]: 9.4 ± 2.7 µL
- FS (fractional shortening) [13]: 46.0 ± 1.8%
- SV (stroke volume) [13]: 32.1 ± 6.1 µL
- EDV (left ventricular end diastolic volume) [14]: 52.8 ± 3.5 µL
- EF (ejection fraction) [14]: 70.1 ± 2.6%
- ESV (left ventricular end systolic volume) [14]: 15.7 ± 1.6 µL
- FS (fractional shortening) [14]: 39.0 ± 2.2%
- SV (stroke volume) [14]: 37.1 ± 2.8 µL
- EDV (left ventricular end diastolic volume) [15]: 51.5 ± 2.8 µL
- EF (ejection fraction) [15]: 77.4 ± 5.1%
- ESV (left ventricular end systolic volume) [15]: 12.2 ± 3.1 µL
- FS (fractional shortening) [15]: 46.8 ± 4.8%
- SV (stroke volume) [15]: 39.3 ± 2.1 µL
- EDV (left ventricular end diastolic volume) [16]: 47.5 ± 5.5 µL
- EF (ejection fraction) [16]: 74.2 ± 5.7%
- ESV (left ventricular end systolic volume) [16]: 13.2 ± 4.3 µL
- FS (fractional shortening) [16]: 43.1 ± 4.8%
- SV (stroke volume) [16]: 34.3 ± 1.4 µL
- EDV (left ventricular end diastolic volume) [17]: 48.8 ± 6.0 µL
- EF (ejection fraction) [17]: 67.9 ± 2.7%
- ESV (left ventricular end systolic volume) [17]: 16.0 ± 2.7 µL
- FS (fractional shortening) [17]: 37.4 ± 2.1%
- SV (stroke volume) [17]: 32.8 ± 3.6 µL
- EDV (left ventricular end diastolic volume) [18]: 62.8 ± 3.7 µL
- EF (ejection fraction) [18]: 72.88 ± 1.8%
- ESV (left ventricular end systolic volume) [18]: 17.22 ± 1.7 µL
- FS (fractional shortening) [18]: 41.47 ± 1.5%
- SV (stroke volume) [18]: 45.63 ± 2.6 µL
- EDV (left ventricular end diastolic volume) [19]: 45.7 ± 11.9 µL
- EF (ejection fraction) [19]: 79.1 ± 2.7%
- ESV (left ventricular end systolic volume) [19]: 10.4 ± 3.4 µL
- FS (fractional shortening) [19]: 47.1 ± 2.4%
- SV (stroke volume) [19]: 35.3 ± 8.5 µL
- EDV (left ventricular end diastolic volume) [20]: 54.6 ± 4.5 µL
- EF (ejection fraction) [20]: 67.5 ± 3.8%
- ESV (left ventricular end systolic volume) [20]: 18.5 ± 3.1 µL
- FS (fractional shortening) [20]: 37.3 ± 3.0%
- SV (stroke volume) [20]: 36.1 ± 2.3 µL
- EDV (left ventricular end diastolic volume) [21]: 56.9 ± 3.9 µL
- EF (ejection fraction) [21]: 77.7 ± 5.8%
- ESV (left ventricular end systolic volume) [21]: 13.4 ± 3.9 µL
- FS (fractional shortening) [21]: 48.1 ± 6.0%
- SV (stroke volume) [21]: 43.5 ± 3.1 µL
- EDV (left ventricular end diastolic volume) [22]: 49.3 ± 5.7 µL
- EF (ejection fraction) [22]: 69.9 ± 5.0%
- ESV (left ventricular end systolic volume) [22]: 15.6 ± 3.9 µL
- FS (fractional shortening) [22]: 39.3 ± 4.2%
- SV (stroke volume) [22]: 33.7 ± 2.6 µL
- EDV (left ventricular end diastolic volume) [23]: 56.4 ± 5.0 µL
- EF (ejection fraction) [23]: 69.1 ± 2.4%
- ESV (left ventricular end systolic volume) [23]: 17.3 ± 1.6 µL
- FS (fractional shortening) [23]: 38.3 ± 1.9%
- SV (stroke volume) [23]: 39.1 ± 4.1 µL
- EDV (left ventricular end diastolic volume) [24]: 66.1 ± 4.4 µL
- EF (ejection fraction) [24]: 73.65 ± 2.4%
- ESV (left ventricular end systolic volume) [24]: 17.85 ± 2.3 µL
- FS (fractional shortening) [24]: 42.39 ± 2.1%
- SV (stroke volume) [24]: 48.26 ± 2.7 µL
- ejection fraction (Kvβ2−/− mice): 71±1.7%
- ejection fraction (WT animals): 84±2.2%
